Source: patent US20100267561A1, “HERBICIDAL PYRIDAZINONE DERIVATIVES” (priority 2007, published 2010)

How the values were obtained:
Type in all cases: in vivo
[1] = test system: field bindweed (Convolvulus arvensis); assay: Test E pre-/postemergence plant response; details: scale 0 to 100
Summary of the method: (§1)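 Visual rating 0–100 vs untreated controls (0 = no effect, 100 = complete control) after 14–21 d greenhouse. Pre- and postemergence treatments; compound in non-phytotoxic solvent mix + surfactant. Post plants 2–18 cm, 1- to 4-leaf stage.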

[2] = test system: Canada horseweed (Conyza canadensis); assay: Test E pre-/postemergence plant response; details: Postemergence, scale 0 to 100
Summary of the method: as §1

[3] = test system: common ragweed (Ambrosia elation); assay: Test E pre-/postemergence plant response; details: scale 0 to 100
Summary of the method: as §1

[4] = test system: spanishneedles (Bidens bipinnata); assay: Test E pre-/postemergence plant response; details: scale 0 to 100
Summary of the method: as §1

[5] = test system: winter barley (HORVX, Hordeum vulgare); assay: Test F mixtures with safener cloquintocet-mexyl, pre-/postemergence plant response; details: applied alone

In the case of `CCc1cc(-c2ccc(C(F)(F)F)cc2)nn1-c1c(OC(=O)OC(C)C)cnn(C)c1=O` [Compound 12], the “Plant response rating, Field Bindweed” value ([1]; 4 g ai/ha, Postemergence) is reported as 0, the “Plant response rating, Field Bindweed” value ([1]; 8 g ai/ha, Preemergence) is reported as 0 and the “Plant response rating, Field Bindweed” value ([1]; 31 g ai/ha, Preemergence) is reported as 0. For the same compound, the “Plant response rating, Field Bindweed” value ([1]; Postemergence, 8 g ai/ha) was 0, the “Plant response rating, Field Bindweed” value ([1]; Postemergence, 31 g ai/ha) was 0 and the “Plant response rating, Field Bindweed” value ([1]; Preemergence, 4 g ai/ha) was 0. The “Plant response rating, Horseweed” value ([2]; 4 g ai/ha) was 0, the “Plant response rating, Horseweed” value ([2]; 8 g ai/ha) was 0 and the “Plant response rating, Horseweed” value ([2]; 31 g ai/ha) was 0. The “Plant response rating, Ragweed” value ([3]; 4 g ai/ha, Postemergence) was 0, the “Plant response rating, Ragweed” value ([3]; 31 g ai/ha, Preemergence) was 0 and the “Plant response rating, Ragweed” value ([3]; Postemergence, 8 g ai/ha) was 0. For the same compound, the “Plant response rating, Ragweed” value ([3]; Postemergence, 31 g ai/ha) was 0, the “Plant response rating, Ragweed” value ([3]; Preemergence, 4 g ai/ha) was 0 and the “Plant response rating, Spanishneedles” value ([4]; 4 g ai/ha, Postemergence) was 0. The “Plant response rating, Spanishneedles” value ([4]; 31 g ai/ha, Preemergence) was 0, the “Plant response rating, Spanishneedles” value ([4]; Postemergence, 8 g ai/ha) was 0 and the “Plant response rating, Spanishneedles” value ([4]; Postemergence, 31 g ai/ha) was 0. For the same compound, the “HORVX Obsd. (observed effect) plant response rating, scale 0 to 100” value ([5]; postemergence, 4 g a.i./ha) was 0, the “HORVX Obsd. (observed effect) plant response rating, scale 0 to 100” value ([5]; postemergence, 8 g a.i./ha) was 32 and the “HORVX Obsd. (observed effect) plant response rating, scale 0 to 100” value ([5]; postemergence, 16 g a.i./ha) was 65. The “HORVX Obsd. (observed effect) plant response rating, scale 0 to 100” value ([5]; preemergence, 4 g a.i./ha) was 10, the “HORVX Obsd. (observed effect) plant response rating, scale 0 to 100” value ([5]; preemergence, 8 g a.i./ha) was 73 and the “HORVX Obsd. (observed effect) plant response rating, scale 0 to 100” value ([5]; preemergence, 16 g a.i./ha) was 80.
